From article PMC6709486, “Safety, Tolerability, Pharmacokinetics, and Drug Interaction Potential of SPR741, an Intravenous Potentiator, after Single and Multiple Ascending Doses and When Combined with β-Lactam Antibiotics in Healthy Subjects” (Antimicrobial Agents and Chemotherapy, 2019)
Peptide text beside a SMILES is read from it.

Legend:
[1] = parameters: species or system human; settings: in vivo
Description: (§1) In the SAD phase, healthy volunteers were screened within 28 days prior to dosing. Subjects were admitted to the clinical facility on day −1 for up to 3 days. A single dose of SPR741 (or placebo) was administered on day 1. Following completion of all safety assessments and sampling for PK analyses, subjects were discharged on day 2. A follow-up visit occurred 5 to 7 days after day 1 dosing. In the MAD phase, all subjects were admitted to the clinical facility on day −1. Dosing commenced on the morning of day 1. Three doses were administered daily at approximately 8 (±0.5)-h intervals for a total of 14 consecutive days. The last dose was administered on the morning of day 14. Blood and urine samples were collected for assessment of PK parameters. Subjects were discharged on day 16 following completion of all PK sample collection and safety assessments, and a follow-up visit occurred 5 to 7 days after the last dose.

[2] = MAD phase safety and tolerability; format: in vivo, human
Excerpt: The SAD/MAD study was a phase 1, double-blind, placebo-controlled, multicohort trial. Part 1 used a SAD design according to which subjects received a single i.v. dose of SPR741. Part 2 used a MAD design in which subjects received multiple daily i.v. doses of SPR741 over a period of 14 days. The objective was to assess the safety/tolerability and PK of single and multiple ascending doses of SPR741.
as §1
The MAD phase of the study began after safety and tolerability were confirmed in cohort 5, and the appropriate dose level was established. Two subjects received placebo, and six subjects received SPR741 doses of 50, 150, 400 or 600 mg q8h for 14 days. In the first cohort of the MAD phase (50 mg q8h), two subjects (sentinels) began dosing with SPR741 or placebo 72 h prior to dosing of the remaining subjects in this cohort. The remaining six subjects were dosed only after no safety concerns were identified by the Safety Monitoring Group at 72 h. After each MAD dose cohort had completed administration of study drug and all evaluations, the Safety Monitoring Group reviewed blinded cumulative safety data (including the day 19 to 21 follow-up data) to confirm the safety and tolerability of study drug.
For both studies, safety assessments included clinical laboratory testing (hematology, coagulation, serum chemistry, renal chemistry, and urinalysis), vital signs (blood pressure, heart rate, body temperature, and respiratory rate), physical examination, and triplicate 12-lead ECGs. […] Adverse events were recorded at each study visit.

[3] = clinical; parameters: species or system human; settings: in vivo, iv
Excerpt: The SAD/MAD study was a phase 1, double-blind, placebo-controlled, multicohort trial. Part 1 used a SAD design according to which subjects received a single i.v. dose of SPR741. Part 2 used a MAD design in which subjects received multiple daily i.v. doses of SPR741 over a period of 14 days. The objective was to assess the safety/tolerability and PK of single and multiple ascending doses of SPR741. In the SAD phase, healthy volunteers were screened within 28 days prior to dosing. Subjects were admitted to the clinical facility on day −1 for up to 3 days. A single dose of SPR741 (or placebo) was administered on day 1. Following completion of all safety assessments and sampling for PK analyses, subjects were discharged on day 2. A follow-up visit occurred 5 to 7 days after day 1 dosing. In the MAD phase, all subjects were admitted to the clinical facility on day −1. Dosing commenced on the morning of day 1. Three doses were administered daily at approximately 8 (±0.5)-h intervals for a total of 14 consecutive days. The last dose was administered on the morning of day 14. Blood and urine samples were collected for assessment of PK parameters. Subjects were discharged on day 16 following completion of all PK sample collection and safety assessments, and a follow-up visit occurred 5 to 7 days after the last dose. In the SAD phase, subjects were randomized to one of eight cohorts that received doses of 5, 15, 50, 100, 200, 400, 600 or 800 mg of SPR741. Within each cohort, two subjects received placebo, and six received SPR741. In cohort 1, two subjects (sentinels) were dosed with SPR741 or placebo 48 h prior to dosing of the remaining subjects. The remaining six subjects were dosed only after no safety concerns were identified in the sentinel subjects. After each dose cohort had completed administration of study drug and evaluation, a Safety Monitoring Group reviewed blinded cumulative safety data (including day 5 to day 7 follow-up data) to confirm the safety and tolerability of SPR741.

## CC(=O)N[C@H](C(=O)N[C@H](CO)C(=O)N[C@H]1CCNC(=O)[C@H]([C@@H](C)O)NC(=O)[C@H](CCN)NC(=O)[C@H](CCN)NC(=O)[C@H](CC(C)C)NC(=O)[C@@H](Cc2ccccc2)NC(=O)[C@H](CCN)NC1=O)[C@@H](C)O [SPR741] (HELM PEPTIDE1{[ac].T.[dS].[Dab].[Dab].[dF].L.[Dab].[Dab].T}$PEPTIDE1,PEPTIDE1,4:R3-10:R2$$$V2.0)
[1]
  fraction of the dose excreted from 0 to 24 h postdose on day 14: 139.1%
[2]; MAD
  deaths or severe TEAEs: No deaths or severe TEAEs occurred
[2]; in vivo
  Abdominal pain: No. (%) of subjects: 2 (8)
  Abdominal pain: No. of events: 2
  All systemic TEAEs: No. (%) of subjects: 24 (100)
  All systemic TEAEs: No. of events: 178
  Arthralgia: No. (%) of subjects: 2 (8)
  Arthralgia: No. of events: 3
  Back pain: No. (%) of subjects: 2 (8)
  Back pain: No. of events: 2
  Chest discomfort: No. (%) of subjects: 2 (8)
  Chest discomfort: No. of events: 2
  Contusion: No. (%) of subjects: 2 (8)
  Contusion: No. of events: 2
  CrCl on day 16: 65 mL/min
  Creatinine clearance decrease: No. of events: 6
  Dermatitis contact: No. of events: 7
  Diarrhea: No. of events: 3
  Dysesthesia: No. (%) of subjects: 2 (8)
  Dysesthesia: No. of events: 2
  Headache: No. of events: 8
  Nausea: No. (%) of subjects: 2 (8)
  Nausea: No. of events: 2
  Rhinitis: No. (%) of subjects: 2 (8)
  Rhinitis: No. of events: 2
  catheter site erythema related to the PK cannula: 13%
  catheter site pain related to the PK cannula: 25%
  decline in CrCl: 50%
  infusion site phlebitis, SPR741 subjects: 3
  infusion site thrombosis, SPR741 subjects: 2
  serious AE of atrial fibrillation, probably related to treatment, withdrawn: One subject
[2]; in vivo, iv
  infusion site reactions (site bruising, erythema, pain, phlebitis, swelling), total number: 81
[3]; human
  Tmax: 1 h
[3]; human, 5 mg
  AUC(0-inf): 1010 ng·h/mL
  Cmax: 370 ng/mL
  Vd: 14.4 L
  clearance: 83.3 mL/min
  half-life: 2.02 h
[3]; human, 15 mg
  AUC(0-inf): 3090 ng·h/mL
  Cmax: 924 ng/mL
  Vd: 19.7 L
  clearance: 84 mL/min
  half-life: 2.81 h
[3]; human, 50 mg
  AUC(0-inf): 9740 ng·h/mL
  Cmax: 3250 ng/mL
  Vd: 18.4 L
  clearance: 86.3 mL/min
  half-life: 2.48 h
[3]; human, 100 mg
  AUC(0-inf): 18200 ng·h/mL
  Cmax: 6010 ng/mL
  Vd: 20.6 L
  clearance: 92.5 mL/min
  half-life: 2.57 h
[3]; human, 200 mg
  AUC(0-inf): 37300 ng·h/mL
  Cmax: 13400 ng/mL
  Vd: 20.3 L
  clearance: 91 mL/min
  half-life: 2.62 h
[3]; human, 400 mg
  AUC(0-inf): 82200 ng·h/mL
  Cmax: 26000 ng/mL
  Vd: 24.5 L
  clearance: 81.5 mL/min
  half-life: 3.47 h
[3]; human, 600 mg
  AUC(0-inf): 133000 ng·h/mL
  Cmax: 38000 ng/mL
  Vd: 24.6 L
  clearance: 77 mL/min
  half-life: 3.76 h
[3]; human, 800 mg
  AUC(0-inf): 190000 ng·h/mL
  Cmax: 52600 ng/mL
  Vd: 21.2 L
  clearance: 70.8 mL/min
  half-life: 3.46 h
[3]
  time of peak mean plasma concentration: approximately 1 h
